Test results from patent publication US8324346B2, “Bioactive keratin peptides” (Keraplast Technologies, Ltd., priority 2002, dated 2012).

Tests used:
keratinocytes = assay: Mitogenic effects of crude peptide compositions on keratinocytes (OD 530 nm); type: cell-based, human; conditions: 5 days of exposure, positive control
human dermal fibroblasts = assay: Biological effect of peptide compositions on human dermal fibroblasts (cell proliferation); type: cell-based; conditions: for increase in cell proliferation: human dermal fibroblasts, positive control
Method: A second set of studies was performed that tested the biological effect of the peptide compositions on human dermal fibroblasts after three and five days of exposure. After three days of exposure, the peptide composition produced a greater than 25% increase in cell proliferation at concentrations between 0.5 and 10 ug/ml. The positive control, […] fibroblast growth factor (bFGF25), produced a greater than 30% increase in cell proliferation. After five days of exposure, peptide compositions at a concentration of 0.5 to 10 ug/ml produced increases in cell proliferation of between 9% and 12%. The positive control produced a greater than 13% increase.
Related in vitro tests confirmed that the mitogenic effect of the peptide compositions on dermal fibroblasts increased with concentration up to nearly 150% of the negative control at 1000 ug/ml concentration. Compositions with greater purity increased the mitogenic effect to over 1000% of the negative control. The positive control in these studies, platelet derived growth factor (PDGF), increased the mitogenic effect to nearly 700% of the negative control.

For “EGF25: epidermal growth factor (EGF25), positive control in the keratinocyte studies”, the “increase in keratinocyte proliferation” value (keratinocytes) was “greater than 25%”.
PDGF was tested, and the “mitogenic effect, % of the negative control” value (human dermal fibroblasts; dermal fibroblasts, concentration not given) was roughly 700%.
In the case of “bFGF25: bovine-derived fibroblast growth factor (bFGF25), positive control”, the “increase in cell proliferation” value (human dermal fibroblasts; five days of exposure) is reported as “greater than 13%” and the “increase in cell proliferation” value (human dermal fibroblasts; three days of exposure) is reported as “greater than 30%”.
